Laboratory results taken from patent publication US20090197932A1, “IMIDAZOLINYLMETHYL ARYL SULFONAMIDE” (priority 2008, published 2009).

What was measured:
alpha-1A adrenoceptors = biological target: T1, alpha-1A adrenoceptors (Homo sapiens, UniProt P35348); test: alpha-1A adrenoceptor partial agonist activity (intrinsic activity and pEC50)
T1 sequence (P35348 1-466): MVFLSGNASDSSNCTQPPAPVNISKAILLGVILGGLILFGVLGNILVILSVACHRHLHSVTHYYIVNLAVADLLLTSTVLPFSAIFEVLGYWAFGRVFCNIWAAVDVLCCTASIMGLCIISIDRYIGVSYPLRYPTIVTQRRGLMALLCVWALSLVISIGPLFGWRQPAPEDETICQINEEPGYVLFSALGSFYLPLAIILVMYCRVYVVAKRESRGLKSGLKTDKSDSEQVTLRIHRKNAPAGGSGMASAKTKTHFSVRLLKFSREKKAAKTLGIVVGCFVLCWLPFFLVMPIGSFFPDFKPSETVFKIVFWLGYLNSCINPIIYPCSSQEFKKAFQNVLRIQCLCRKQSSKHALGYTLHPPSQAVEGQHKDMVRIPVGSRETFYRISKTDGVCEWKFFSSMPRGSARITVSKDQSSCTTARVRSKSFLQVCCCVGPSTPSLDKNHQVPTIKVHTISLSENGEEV

[1] = test system: Female, Dutch Belted rabbits; test: Anesthetized rabbit model: change in IUP and MAP, slope of IUP response; type: in vivo; conditions: i.v.
Protocol: In general, IUP is the intraurethral pressure and is measured as the 2 minute mean from the first peak of the urethral response (FIG. 1). MAP is the mean arterial blood pressure and is measured as the average blood pressure during the 2 minute section where IUP is measured. The durability is the slope of the IUP response in mmHg/min and is calculated immediately after the 2 minute IUP response for 5 minutes (2-7 minutes post the first peak) for the top 3 doses.
Surgery: Female, Dutch Belted rabbits (1.20-2.0 kg, Myrtle's Rabbitry, Tenn.) were anesthetized with isoflurane (3.0% at 2 to 4 L/min) and urethane (1.5 grams/kg, s.c.). In preparation for surgery, the rabbits were shaved, scrubbed (i.e., perineal area, ventral neck, and ventral, caudal surface of the abdomen) and were administered Ringers Lactate Solution (s.c.) to maintain fluids. […]
Experiment: The arterial cannula was connected to a P23XL, pressure transducer (Grass Technologies, West Warwick, R.I.) and the arterial pressure transducer and Unisensor urethral transducer catheter were connected to an Gould 13-6615-50 amplifier (Data Sciences International, St. Paul, Minn.) and Gould TA6000 recorder (Data Sciences International, St. Paul, Minn.) in parallel. All data was analyzed using Power Lab Chart version 5.0.2 (ADInstruments, Colorado Springs, Colo.) data acquisition system. […]
Measurements: The change in IUP and MAP from baseline were measured as well as the slope of the IUP response. MAP was first calculated according to the following formula, where Pd is diastolic pressure and Ps is systolic pressure: MAP=Pd+1/3(Ps−Pd). Pre-dose baseline values for IUP and MAP were assessed during a 2 min period just prior to vehicle or test compound administration. Post-dose values for IUP or MAP were determined during a 2 min period at the first peak in the IUP tracing following vehicle or test compound administration. The change in IUP and MAP induced by vehicle or test compound were then calculated by subtracting the pre-dose value from the post-dose value. […]

[2] = test system: Female Yucatan Micro-Swine; test: Conscious pig model: IUP, MAP and HR during infusion; type: in vivo; conditions: infusion via ear vein for two hours
Protocol: Sling Training: Female Yucatan Micro-Swine were trained to stay in a sling for up to 4 hours. Swine were exposed to progressively longer sling durations per IACUC sling-training guideline.
Surgical Instrumentation: Female Yucatan Micro-swine were instrumented with a telemetry device with both pressure and ECG monitoring capabilities (Data Sciences International St Paul Minn.). In addition, a Bardport low profile titanium VAP was placed subcutanteously for blood sampling. All devices were implanted by the surgical veterinarian at Roche Palo Alto. Briefly, the telemetry probe body was placed subcutaneously in the cervical region. The intra-arterial pressure catheter was advanced via the superficial cervical artery into the subclavian artery for blood pressure measurement. […]
Experiment: After the swine was fully awake and stable (usually approximately 1 hour post wake up), baseline blood pressure, IUP, and heart rate parameters were determined. […]
Data Generating and Analysis Systems: Cardiovascular readings were generated by the TL11M3-D70-PCP (Data Sciences International, St. Paul, Minn.) telemetry device and associated hardware. […] IUP was monitored by a solid state catheter connected to a TA6000 Polygraph (Data Sciences International, St. Paul, Minn.). […]

Q: Which “intrinsic activity, or efficacy, as a partial agonist” value (alpha-1A adrenoceptors; ideally between 0.35 to 0.60) does the source give for `CS(=O)(=O)Nc1ccc(CC2=NCCN2)c(Br)c1Cl` [Formula I, N-[3-Bromo-2-chloro-4-(4,5-dihydro-1H-imidazol-2-ylmethyl)-phenyl]-methanesulfonamide] here?
A: The value was 0.38.

Q: And the EC50 (alpha-1A adrenoceptors; read-out: affinity, or pEC50 value (converted))?
A: The EC50 was 251 nM.

Q: What about the “maximum increase in MAP” value [1] of the same compound?
A: Its value is 9.75 mmHg.

Q: What about the “selectivity for enhancement of intraurethral pressure (IUP) over blood pressure (MAP)” value ([1]; at the 10 mmHg change in IUP level (ED10 of MAP/ED10 of IUP)) of the same compound?
A: The value was 38 fold.

Q: And the “durability of IUP response over time” value ([1]; slope of IUP response 2-7 minutes post the first peak, top 3 doses)?
A: Its value is “increased durability of IUP response over time”.

Q: What about the IUP durability [2] of the same compound?
A: Its IUP durability is “exceptional IUP durability”.
